What was measured:
HCT-116 = assay: Antiproliferative activity against human HCT-116 cells assessed as cell growth inhibition incubated for 72 hrs by alamar blue dye based assay; format: functional
RXF 393 = assay: Antiproliferative activity against human RXF 393 cells assessed as cell growth inhibition incubated for 72 hrs by alamar blue dye based assay; format: functional
SF-539 = assay: Antiproliferative activity against human SF-539 cells assessed as cell growth inhibition incubated for 72 hrs by alamar blue dye based assay; format: functional
CCRF-CEM = assay: Antiproliferative activity against human CCRF-CEM cells assessed as cell growth inhibition incubated for 72 hrs by alamar blue dye based assay; format: functional
786-0 = assay: Antiproliferative activity against human 786-0 cells assessed as cell growth inhibition incubated for 72 hrs by alamar blue dye based assay; format: functional
NCI-H23 = assay: Antiproliferative activity against human NCI-H23 cells assessed as cell growth inhibition incubated for 72 hrs by alamar blue dye based assay; format: functional
Hs-578T = assay: Antiproliferative activity against human Hs-578T cells assessed as cell growth inhibition incubated for 72 hrs by alamar blue dye based assay; format: functional
OVCAR-5 = assay: Antiproliferative activity against human OVCAR-5 cells assessed as cell growth inhibition incubated for 72 hrs by alamar blue dye based assay; format: functional
M14 = assay: Antiproliferative activity against human M14 cells assessed as cell growth inhibition incubated for 72 hrs by alamar blue dye based assay; format: functional
OVCAR-3 = assay: Antiproliferative activity against human OVCAR-3 cells assessed as cell growth inhibition incubated for 72 hrs by alamar blue dye based assay; format: functional
HOP-92 = assay: Antiproliferative activity against human HOP-92 cells assessed as cell growth inhibition incubated for 72 hrs by alamar blue dye based assay; format: functional
SK-MEL-5 = assay: Antiproliferative activity against human SK-MEL-5 cells assessed as cell growth inhibition incubated for 72 hrs by alamar blue dye based assay; format: functional
K562 = assay: Antiproliferative activity against human K562 cells assessed as cell growth inhibition incubated for 72 hrs by alamar blue dye based assay; format: functional
UACC-62 = assay: Antiproliferative activity against human UACC-62 cells assessed as cell growth inhibition incubated for 72 hrs by alamar blue dye based assay; format: functional
KM12 = assay: Antiproliferative activity against human KM12 cells assessed as cell growth inhibition incubated for 72 hrs by alamar blue dye based assay; format: functional
IGROV-1 = assay: Antiproliferative activity against human IGROV-1 cells assessed as cell growth inhibition incubated for 72 hrs by alamar blue dye based assay; format: functional
PC-3 = assay: Antiproliferative activity against human PC-3 cells assessed as cell growth inhibition incubated for 72 hrs by alamar blue dye based assay; format: functional
Histone deacetylase 1 = Histone deacetylase 1 (Homo sapiens, UniProt Q13547); assay: Inhibition of HDAC1 (unknown origin) expressed in baculovirus infected in Sf9 cells using RHKKAc as substrate preincubated for 5 to 10 mins followed by substrate addition measured after 2 hrs by fluorescence based assay
SF-295 = assay: Antiproliferative activity against human SF-295 cells assessed as cell growth inhibition incubated for 72 hrs by alamar blue dye based assay; format: functional
NCI/ADR-RES = assay: Antiproliferative activity against human NCI-ADR-RES cells assessed as cell growth inhibition incubated for 72 hrs by alamar blue dye based assay; format: functional
HT-29 = assay: Antiproliferative activity against human HT-29 cells assessed as cell growth inhibition incubated for 72 hrs by alamar blue dye based assay; format: functional
NCI-H522 = assay: Antiproliferative activity against human NCI-H522 cells assessed as cell growth inhibition incubated for 72 hrs by alamar blue dye based assay; format: functional
HCC 2998 = assay: Antiproliferative activity against human HCC 2998 cells assessed as cell growth inhibition incubated for 72 hrs by alamar blue dye based assay; format: functional
NCI-H226 = assay: Antiproliferative activity against human NCI-H226 cells assessed as cell growth inhibition incubated for 72 hrs by alamar blue dye based assay; format: functional
T47D = assay: Antiproliferative activity against human T47D cells assessed as cell growth inhibition incubated for 72 hrs by alamar blue dye based assay; format: functional
SNB-19 = assay: Antiproliferative activity against human SNB-19 cells assessed as cell growth inhibition incubated for 72 hrs by alamar blue dye based assay; format: functional
MDA-MB-468 = assay: Antiproliferative activity against human MDA-MB-468 cells assessed as cell growth inhibition incubated for 72 hrs by alamar blue dye based assay; format: functional
SK-MEL-28 = assay: Antiproliferative activity against human SK-MEL-28 cells assessed as cell growth inhibition incubated for 72 hrs by alamar blue dye based assay; format: functional
EKVX = assay: Antiproliferative activity against human EKVX cells assessed as cell growth inhibition incubated for 72 hrs by alamar blue dye based assay; format: functional
SNB-75 = assay: Antiproliferative activity against human SNB-75 cells assessed as cell growth inhibition incubated for 72 hrs by alamar blue dye based assay; format: functional
CAKI-1 = assay: Antiproliferative activity against human CAKI-1 cells assessed as cell growth inhibition incubated for 72 hrs by alamar blue dye based assay; format: functional
NCI-H460 = assay: Antiproliferative activity against human NCI-H460 cells assessed as cell growth inhibition incubated for 72 hrs by alamar blue dye based assay; format: functional
Malme-3M = assay: Antiproliferative activity against human Malme-3M cells assessed as cell growth inhibition incubated for 72 hrs by alamar blue dye based assay; format: functional
A549 = assay: Antiproliferative activity against human A549 cells assessed as cell growth inhibition incubated for 72 hrs by alamar blue dye based assay; format: functional
SK-OV-3 = assay: Antiproliferative activity against human SK-OV-3 cells assessed as cell growth inhibition incubated for 72 hrs by alamar blue dye based assay; format: functional
MOLT-4 = assay: Antiproliferative activity against human MOLT-4 cells assessed as cell growth inhibition incubated for 72 hrs by alamar blue dye based assay; format: functional
MDA-MB-231 = assay: Antiproliferative activity against human MDA-MB-231 cells assessed as cell growth inhibition incubated for 72 hrs by alamar blue dye based assay; format: functional
BT-549 = assay: Antiproliferative activity against human BT-549 cells assessed as cell growth inhibition incubated for 72 hrs by alamar blue dye based assay; format: functional
DU-145 = assay: Antiproliferative activity against human DU-145 cells assessed as cell growth inhibition incubated for 72 hrs by alamar blue dye based assay; format: functional
COLO 205 = assay: Antiproliferative activity against human COLO 205 cells assessed as cell growth inhibition incubated for 72 hrs by alamar blue dye based assay; format: functional
HL-60(TB) = assay: Antiproliferative activity against human HL-60(TB) cells assessed as cell growth inhibition incubated for 72 hrs by alamar blue dye based assay; format: functional
SN12C = assay: Antiproliferative activity against human SN12C cells assessed as cell growth inhibition incubated for 72 hrs by alamar blue dye based assay; format: functional
SR = assay: Antiproliferative activity against human SR cells assessed as cell growth inhibition incubated for 72 hrs by alamar blue dye based assay; format: functional
RPMI-8226 = assay: cells; format: functional, cell-based; conditions: Homo sapiens
OVCAR-4 = assay: Antiproliferative activity against human OVCAR-4 cells assessed as cell growth inhibition incubated for 72 hrs by alamar blue dye based assay; format: functional
OVCAR-8 = assay: Antiproliferative activity against human OVCAR-8 cells assessed as cell growth inhibition incubated for 72 hrs by alamar blue dye based assay; format: functional

Histone deacetylase 1, sequence (Q13547 whole entry): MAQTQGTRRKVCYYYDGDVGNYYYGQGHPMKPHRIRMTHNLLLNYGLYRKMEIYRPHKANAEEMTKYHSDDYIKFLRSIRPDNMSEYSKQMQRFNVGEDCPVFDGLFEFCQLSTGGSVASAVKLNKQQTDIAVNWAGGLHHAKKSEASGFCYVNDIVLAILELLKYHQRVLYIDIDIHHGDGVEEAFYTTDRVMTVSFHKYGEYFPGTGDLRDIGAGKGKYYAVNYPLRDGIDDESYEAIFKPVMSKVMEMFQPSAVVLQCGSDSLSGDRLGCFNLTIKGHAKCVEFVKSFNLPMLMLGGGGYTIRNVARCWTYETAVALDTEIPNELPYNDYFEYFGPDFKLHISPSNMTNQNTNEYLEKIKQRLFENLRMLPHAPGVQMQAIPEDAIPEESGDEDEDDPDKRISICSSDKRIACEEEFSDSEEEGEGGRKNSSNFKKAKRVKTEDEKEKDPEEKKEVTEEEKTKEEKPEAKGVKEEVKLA

O=C(NO)c1ccc(CNC(=O)[C@H]2Cc3c([nH]c4ccccc34)[C@H](c3ccc(Cl)cc3)N2)cc1
GI50 (HCT-116): 609 nM | GI50 (RXF 393): 455 nM | GI50 (SF-539): 1140 nM | GI50 (CCRF-CEM): 617 nM | GI50 (786-0): 3.71 µM | GI50 (NCI-H23): 1330 nM | GI50 (Hs-578T): 1010 nM | GI50 (OVCAR-5): 456 nM | GI50 (M14): 2200 nM | GI50 (OVCAR-3): 1230 nM | GI50 (HOP-92): 930 nM | GI50 (SK-MEL-5): 721 nM | GI50 (K562): 720 nM | GI50 (UACC-62): 538 nM | GI50 (KM12): 2360 nM | GI50 (IGROV-1): 1200 nM | GI50 (PC-3): 1760 nM | IC50 (Histone deacetylase 1): 61.6 nM | GI50 (SF-295): 1810 nM | GI50 (NCI/ADR-RES): 3.35 µM | GI50 (HT-29): 838 nM | GI50 (NCI-H522): 584 nM | GI50 (HCC 2998): 605 nM | GI50 (NCI-H226): 2270 nM | GI50 (T47D): 600 nM | GI50 (SNB-19): 2260 nM | GI50 (MDA-MB-468): 380 nM | GI50 (SK-MEL-28): 878 nM | GI50 (EKVX): 2650 nM | GI50 (SNB-75): 2260 nM | GI50 (CAKI-1): 2330 nM | GI50 (NCI-H460): 1020 nM | GI50 (Malme-3M): 410 nM | GI50 (A549): 3.97 µM | GI50 (SK-OV-3): 2010 nM | GI50 (MOLT-4): 563 nM | GI50 (MDA-MB-231): 887 nM | GI50 (BT-549): 4.93 µM | GI50 (DU-145): 1080 nM | GI50 (COLO 205): 719 nM | GI50 (HL-60(TB)): 706 nM | GI50 (SN12C): 2410 nM | GI50 (SR): 1150 nM | IC50 (RPMI-8226; RPMI-8226, 72 h): 620 nM | GI50 (RPMI-8226; RPMI-8226, time 72 hrs): 564 nM | GI50 (OVCAR-4): 3.73 µM | GI50 (OVCAR-8): 942 nM

From ChEMBL document CHEMBL5625247, “Tetrahydro-β-carboline derivatives as potent histone deacetylase 6 inhibitors with broad-spectrum antiproliferative activity” (Eur J Med Chem, 2023)
